Measurements published in patent US10913732B2, “Furoxans as therapies for neurodegenerative disorders” (The University of Toledo, priority 2016, dated 2021).

Tests used:
[1] = In vivo pharmacokinetics, plasma and forebrain levels by LC-MS/MS; parameters: species or system mice
Method: FIGS. 6A-6C: The ratio of the AUC of the MRM transition for 31b versus 41b was calculated and the resulting values were normalized based on total protein concentration of samples (determined by Bradford assay). N=4 per group. Data shown as SEM, analysis by one way ANOVA with Tukey's post-test. *=p<0.05. Half-life's were calculated based on first order exponential decay.
31b was administered to mice and specimens were processed according to FIG. 4A. Levels of 31b were determined in the plasma and forebrain after intraperitoneal (ip) and oral (po) administration at varying post-administration time points (1, 2, or 12 hr [N=4 per cohort]). […] A deuterated (d^4) analog of 31b, designated 41b, was synthesized for LC-MS studies. Deuterated internal standards are required for absolute quantitation via LC-MS/MS and are desirable for because they have identical physiochemical properties to their non-deuterated kin, but may be distinguished based on molecular weight. Inclusion of 41b allows for control of extraction efficiency, technique proficiency, and instrumentation sensitivity. Extraction methodology and tandem LC-MS/MS parameters (optimized MRM transitions) were developed and validated via extraction of blank brain tissue spiked with 31b and 41b to develop a calibration curve. In this initial evaluation, the appropriate forebrain and plasma samples were spiked with a fixed concentration of 41b, homogenized in extraction buffer, applied to a solid phase resin cartridge, eluted, concentrated, reconstituted, and analyzed via MRM monitoring using LC-MS/MS. […] There were no significant differences in levels of 31b in the brain (B) versus plasma (P), with an average B:P ratio of 1.6 (±0.8). […] Without wishing to be bound by theory, it is believed that low oral bioavailability of 31b is the result of rapid 1st pass metabolism, since the microsomal stability studies indicate poor hepatic stability. The use of common dosage form strategies likely results in improved oral bioavailability. Alternative administration routes, including intranasal, are also believed to result in high brain bioavailability based on the relativity high lipophilicity of the embodiments tested. […] Moreover, the physiochemical properties proposed as being appropriate for CNS drugs are appropriate. The long residence time of the furoxan (visible in the brain after 12 hr), indicates an ideal scenario for daily dosing.
Forebrain tissue (˜30 mg) was homogenized in 1 ml of tissue extraction buffer (Invitrogen) containing a protease inhibitor cocktail (PIC). 100 μL of the resulting homogenate (or 100 μL of plasma) was spiked with 2% Formic acid (200 μL, containing 41b [0.5 μM]—internal standard) and vortexed for 1 min. The mixture was applied to an Evolute Express ABN column (Biotage) and filtered through via vacuum filtration. The matrix was washed with dH2O (1 mL) and analytes eluted with MeOH (1 mL). The resulting extract was evaporated to dryness by passing over air and reconstituted in ACN/dH2O (100 μL). A 10 μL injection was analyzed by LC-MS/MS. Analysis was carried out on a Shimadzu Nexera XR HPLC coupled with a Shimadzu 8050 triple quadrupole mass spectrometer. LC utilized a Kinetex-core column (Phenomenex): 2.6 um C18 100 A, 100×4.6 mm. HPLC Method: solvents, H2O [0.1% FA]—solvent A; MeOH [0.1% FA]—solvent B; flow rate 1.0 mL/min (utilized Tsplitter, mass spectrometer effective flow rate 0.4 mL/min). Gradient: t=2 min, 5% B; t=6 min, 95% B; t=7.0 min, 95% B; t=7.01, 5% B. Stop time 10 min. Diverter valve was utilized and eluent only averted to MS from 5 min-8 min. Quantity was determined based on the AUC of the internal standard versus the AUC of the analyte peak.

pCREB = pCREB modulation in PC-12 cells (without insult, with OGD, L-NAME); assay type: cell-based; details: 31b 25 μM, 48 hr incubation
Method: FIGS. 3A-3C: Neuroprotection (FIG. 3A), MTT treatment was used to assess cell viability (FIG. 3B), and pCREB modulation (FIG. 3C) of furoxan compounds. Neuroprotection assay workflow: expose PC12 cells to oxygen glucose deprivation (OGD) for 90 min→reoxygenate and add furoxan (1, 10, or 25 μM)→incubate for 24 hr→MTT readout of viability. Data represented as mean and s.e.m. (n=3). *=p<0.05, **=p<0.01, ***=p<0.001 compared to vehicle control using one way ANOVA analysis with Dunnett's post-hoc test. Red dashed line indicates threshold of vehicle effects. For pCREB modulation, 31b (25 μM) was examined (PC-12 cells, 48 hr incubation) in the following: without insult, with OGD, L-NAME.

[2] = Rat liver microsome metabolic stability; assay type: in vitro ADME; details: rat liver microsomes, read-out: RLM t1/2
Method: 7.4) at 37° C. (FIG. 5A). Incubations were placed in a temperature controlled HPLC autosampler and aliquots are analyzed by HPLC-UVvis periodically for 2-24 hr. Percent furoxan remaining was determined based on the area under the curve (AUC) of the HPLC UV-absorbance spectrum. Similarly, rat liver microsomes were incubated with 31b in the presence or absence of NADPH to determine microsomal stability (FIG. 5B). Warfarin and verapamil were used as slow and fast metabolizing controls.
Metabolic stability is an important parameter for determining the drug-like properties of a molecule, especially when trying to develop attenuated furoxans which require reaction with thiols to produce an effect. The metabolism of 31b in the presence of rat liver microsomes (RLM) was studied. Verapamil and warfarin were used as well-characterized controls. […]
HPLC method: solvents, H2O [0.1% FA]—solvent A; MeOH [0.1% FA]—solvent B; flow rate 1.0 mL/min. […] As described above, thiol reactivity was analyzed via incubations containing the furoxan (250 μM) in the presence or absence of excess (5 mM) cysteine (or N-acetylcysteine [NAc]) in PBS (50 mM, pH 7.4) at 37° C. Incubations were placed in a temperature controlled HPLC autosampler and aliquots were analyzed by HPLC-UVvis periodically for 2-24 hr. Percent furoxan remaining was determined based on the area under the curve (AUC) of the HPLC UV-absorbance spectrum. […]

With CC1CCN(Cc2no[n+]([O-])c2-c2ccc(F)cc2)CC1 [31b] the “Amounts in ip-treated mice compared to oral gavage” value ([1]; mice) was “significantly higher amounts in ip-treated mice”, the “Levels in plasma and forebrain after 12 h” value ([1]; mice, ip and po) was “detectable levels” and the Oral bioavailability ([1]; mice, po) was “low”. For the same compound, the Kp ([1]; mouse, forebrain versus plasma, other: intraperitoneal (ip) and oral (po), averaged together, mice, read-out: Average B:P ratio (brain versus plasma)) was 1.6, the Brain penetration ([1]; mouse, in vivo) was “significant brain penetration” and the half-life ([1]; mouse, plasma and forebrain, intraperitoneal and oral, mice, ip and po, first order exponential decay, read-out: In vivo t1/2 for brain and plasma) was 50 to 110 min. The “Effects of NOS inhibition on pCREB” value (pCREB) was “reverses the effects of NOS inhibition on pCREB” and the half-life [2] was about 11 min.
